The values that follow come from patent publication US4521406A, “Antitumor agent” (priority 1980, dated 1985).

Structures are written as SMILES. “Also recorded” adds a separate entry of the source.

Series [1] relates to tumor. Conditions: general statement; cited from earlier work.
For series [2] the following is noted: general statement; cited from earlier work.
Series [3] deals with Glioblastoma cancer cells. In words: Glioblastoma transplanted into the brain of rats, survival (Experimental Example 6). Conditions: 5-fluorocytosine 4 ml (10 mg/ml) i.p. every other day; 0.02 ml cytosinedeaminase (1 IU/ml) or PBS to transplantation site.
A further series relates to HeLa cells. In words: Growth inhibition of HeLa cells (Experimental Example 1). Conditions: for number of cells: drug used alone (control).
Series [4] has as its system tumor. The experiment in a line: General statements on antitumor activity. Conditions: applicant's summary of Experimental Examples 1 to 6.
The test system of a further series is human Glioblastoma. In words: Morphological changes of human Glioblastoma (Experimental Example 4). Conditions: 50 μg/ml. The series is classed as cell-based.

For the compound `O=c1[nH]cc(F)c(=O)[nH]1` [5-fluorouracil], the antitumor activity result with tumor [1] is “intense antitumor activity; also recorded: effective against solid tumors”. Besides, the toxicity entry in series [2] was “intense toxicity in oral and intravenous administrations”.

`Nc1nc(=O)[nH]cc1F` [5-fluorocytosine]: the antitumor activity entry with tumor [1] is recorded as “no antitumor activity”. Further, in series [3], the “Average days of survival” value is reported as 32 days. The number of cells is reported as 73 ×10^-4 cells/ml in the series on HeLa cells (2 days elapsed, 24 h contact); 120 ×10^-4 cells/ml in the series with HeLa cells (4 days elapsed, 24 h contact); 205 ×10^-4 cells/ml in the series on HeLa cells (6 days elapsed, 24 h contact); 29 ×10^-4 cells/ml in the series with HeLa cells (day 0, before 24 h treatment). Further, in the series with HeLa cells (HeLa cells, used alone, result in words), the “antitumor activity when used singly” value is given as “do not have any antitumor activity”. The “antitumor activity of the individual agents / of combined use” value in the series with tumor [4] is recorded as “neither 5-fluorocytosine nor cytosinedeaminase has antitumor activity”. Besides, the morphological changes entry with human Glioblastoma is “morphological changes such as the disintegration of the cytoplasm and the deformation of the nucleus were evidently noted”.

Regarding `O=c1[nH]c(=O)n(C2CCCO2)cc1F` (stereo not drawn) [tetrahydrofuryl 5-fluorouracil], in series [2], the toxicity entry is recorded as “low toxicity”.
